Data as given in US12421225B2, “Heteroaromatic amide derivative and medicament containing the same” (KAKEN PHARMACEUTICAL CO., LTD., priority 2018, dated 2025).

Assays:
human Nav1.5 = human Nav1.5 (Homo sapiens (Human), UniProt Q14524); experiment: Human Nav1.5 inhibitory activity evaluation (automated patch clamp QPatch16X, HEK293 cells stably expressing human Nav1.5); type: cell-based
Outline: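 Whole-cell automated patch clamp at room temperature on HEK293 stably expressing human Nav1.5; holding −80 mV, 20 consecutive cardiomyocyte action-potential-like test pulses before and after compound (0.1% DMSO). Inhibition measured on inward current at 20th pulse; IC50 from concentration-response curve.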

human Nav1.7 = human Nav1.7 (Homo sapiens (Human), UniProt Q15858); experiment: Human Nav1.7 inhibitory activity evaluation (automated patch clamp QPatch16X, HEK293A cells stably expressing human Nav1.7 and human Navβ1); type: cell-based
Chain of human Nav1.7 (Q15858 whole entry): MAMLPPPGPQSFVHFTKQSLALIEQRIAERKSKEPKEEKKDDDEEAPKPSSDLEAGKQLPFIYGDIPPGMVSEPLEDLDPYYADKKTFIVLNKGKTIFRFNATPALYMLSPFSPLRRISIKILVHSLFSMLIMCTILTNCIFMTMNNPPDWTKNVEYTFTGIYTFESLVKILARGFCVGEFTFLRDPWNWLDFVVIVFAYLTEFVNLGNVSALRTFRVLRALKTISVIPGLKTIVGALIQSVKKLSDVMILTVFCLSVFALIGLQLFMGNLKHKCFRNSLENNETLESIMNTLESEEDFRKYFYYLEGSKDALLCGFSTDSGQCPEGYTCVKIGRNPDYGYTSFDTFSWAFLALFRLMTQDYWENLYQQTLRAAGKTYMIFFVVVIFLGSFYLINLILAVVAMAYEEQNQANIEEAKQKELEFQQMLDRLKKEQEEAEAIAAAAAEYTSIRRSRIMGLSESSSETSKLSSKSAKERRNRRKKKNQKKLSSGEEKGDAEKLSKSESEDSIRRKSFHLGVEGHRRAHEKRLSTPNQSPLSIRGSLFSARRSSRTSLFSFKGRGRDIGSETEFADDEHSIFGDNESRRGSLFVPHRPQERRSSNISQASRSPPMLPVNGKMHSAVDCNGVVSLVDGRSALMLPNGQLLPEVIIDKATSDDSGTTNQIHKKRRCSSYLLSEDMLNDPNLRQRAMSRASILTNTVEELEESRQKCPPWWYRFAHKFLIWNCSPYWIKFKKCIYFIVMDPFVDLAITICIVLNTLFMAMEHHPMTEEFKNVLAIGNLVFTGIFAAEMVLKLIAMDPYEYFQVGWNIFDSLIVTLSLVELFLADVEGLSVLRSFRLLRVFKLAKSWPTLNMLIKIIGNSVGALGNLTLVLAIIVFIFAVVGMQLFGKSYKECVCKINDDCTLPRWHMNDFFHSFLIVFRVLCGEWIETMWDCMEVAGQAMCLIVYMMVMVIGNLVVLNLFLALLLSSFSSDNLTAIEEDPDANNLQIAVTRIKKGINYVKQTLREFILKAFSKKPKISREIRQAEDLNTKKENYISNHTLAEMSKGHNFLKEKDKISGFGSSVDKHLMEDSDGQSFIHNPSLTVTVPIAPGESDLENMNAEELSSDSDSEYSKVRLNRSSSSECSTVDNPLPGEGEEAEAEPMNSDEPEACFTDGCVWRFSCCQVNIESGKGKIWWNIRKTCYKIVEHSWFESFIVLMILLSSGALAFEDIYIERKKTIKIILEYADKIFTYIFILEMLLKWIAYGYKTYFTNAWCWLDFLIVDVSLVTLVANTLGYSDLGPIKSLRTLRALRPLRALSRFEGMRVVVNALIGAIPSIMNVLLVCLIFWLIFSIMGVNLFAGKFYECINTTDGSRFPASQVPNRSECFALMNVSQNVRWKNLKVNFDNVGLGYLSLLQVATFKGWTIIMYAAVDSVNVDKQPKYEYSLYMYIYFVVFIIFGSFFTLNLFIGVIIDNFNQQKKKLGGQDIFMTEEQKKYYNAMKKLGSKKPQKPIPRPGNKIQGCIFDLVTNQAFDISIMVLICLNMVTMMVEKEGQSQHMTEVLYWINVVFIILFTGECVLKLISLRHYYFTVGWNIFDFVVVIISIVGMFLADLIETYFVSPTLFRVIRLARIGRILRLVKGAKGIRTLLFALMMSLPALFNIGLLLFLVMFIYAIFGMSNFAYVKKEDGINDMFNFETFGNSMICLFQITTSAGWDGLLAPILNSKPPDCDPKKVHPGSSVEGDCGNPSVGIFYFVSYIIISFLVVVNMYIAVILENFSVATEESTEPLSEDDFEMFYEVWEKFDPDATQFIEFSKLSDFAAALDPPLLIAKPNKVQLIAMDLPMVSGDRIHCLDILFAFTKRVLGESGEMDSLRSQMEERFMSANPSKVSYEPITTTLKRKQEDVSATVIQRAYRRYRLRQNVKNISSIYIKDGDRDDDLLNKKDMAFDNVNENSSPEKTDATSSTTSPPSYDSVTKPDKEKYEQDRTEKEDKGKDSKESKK
Chain of human Nav1.7 (Q07699 19-218 partner): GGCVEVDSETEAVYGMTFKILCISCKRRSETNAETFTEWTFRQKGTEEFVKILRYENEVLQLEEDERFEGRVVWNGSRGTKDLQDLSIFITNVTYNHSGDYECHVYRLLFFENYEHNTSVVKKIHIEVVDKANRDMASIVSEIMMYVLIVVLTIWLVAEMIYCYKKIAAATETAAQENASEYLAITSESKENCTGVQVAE
Outline: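 QPatch16X whole-cell recordings at room temperature from HEK293A cells stably expressing human Nav1.7 with Navβ1, CsF-based internal solution, pH 7.4 external, 0.1% DMSO. From −100 mV holding, protocol included a 15 s hold at a potential inactivating ~30-40% of channels; IC50 from inward current at the second −10 mV pulse.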

[1] = human Nav1.5, automated patch clamp
[2] = human Nav1.7, automated patch clamp
[3] = HEK293 cells stably expressing human Nav1.5, automated patch clamp QPatch16X
[4] = HEK293A cells stably expressing human Nav1.7 and human Navβ1, automated patch clamp QPatch16X

Chain of human Nav1.5 (Q14524 whole entry): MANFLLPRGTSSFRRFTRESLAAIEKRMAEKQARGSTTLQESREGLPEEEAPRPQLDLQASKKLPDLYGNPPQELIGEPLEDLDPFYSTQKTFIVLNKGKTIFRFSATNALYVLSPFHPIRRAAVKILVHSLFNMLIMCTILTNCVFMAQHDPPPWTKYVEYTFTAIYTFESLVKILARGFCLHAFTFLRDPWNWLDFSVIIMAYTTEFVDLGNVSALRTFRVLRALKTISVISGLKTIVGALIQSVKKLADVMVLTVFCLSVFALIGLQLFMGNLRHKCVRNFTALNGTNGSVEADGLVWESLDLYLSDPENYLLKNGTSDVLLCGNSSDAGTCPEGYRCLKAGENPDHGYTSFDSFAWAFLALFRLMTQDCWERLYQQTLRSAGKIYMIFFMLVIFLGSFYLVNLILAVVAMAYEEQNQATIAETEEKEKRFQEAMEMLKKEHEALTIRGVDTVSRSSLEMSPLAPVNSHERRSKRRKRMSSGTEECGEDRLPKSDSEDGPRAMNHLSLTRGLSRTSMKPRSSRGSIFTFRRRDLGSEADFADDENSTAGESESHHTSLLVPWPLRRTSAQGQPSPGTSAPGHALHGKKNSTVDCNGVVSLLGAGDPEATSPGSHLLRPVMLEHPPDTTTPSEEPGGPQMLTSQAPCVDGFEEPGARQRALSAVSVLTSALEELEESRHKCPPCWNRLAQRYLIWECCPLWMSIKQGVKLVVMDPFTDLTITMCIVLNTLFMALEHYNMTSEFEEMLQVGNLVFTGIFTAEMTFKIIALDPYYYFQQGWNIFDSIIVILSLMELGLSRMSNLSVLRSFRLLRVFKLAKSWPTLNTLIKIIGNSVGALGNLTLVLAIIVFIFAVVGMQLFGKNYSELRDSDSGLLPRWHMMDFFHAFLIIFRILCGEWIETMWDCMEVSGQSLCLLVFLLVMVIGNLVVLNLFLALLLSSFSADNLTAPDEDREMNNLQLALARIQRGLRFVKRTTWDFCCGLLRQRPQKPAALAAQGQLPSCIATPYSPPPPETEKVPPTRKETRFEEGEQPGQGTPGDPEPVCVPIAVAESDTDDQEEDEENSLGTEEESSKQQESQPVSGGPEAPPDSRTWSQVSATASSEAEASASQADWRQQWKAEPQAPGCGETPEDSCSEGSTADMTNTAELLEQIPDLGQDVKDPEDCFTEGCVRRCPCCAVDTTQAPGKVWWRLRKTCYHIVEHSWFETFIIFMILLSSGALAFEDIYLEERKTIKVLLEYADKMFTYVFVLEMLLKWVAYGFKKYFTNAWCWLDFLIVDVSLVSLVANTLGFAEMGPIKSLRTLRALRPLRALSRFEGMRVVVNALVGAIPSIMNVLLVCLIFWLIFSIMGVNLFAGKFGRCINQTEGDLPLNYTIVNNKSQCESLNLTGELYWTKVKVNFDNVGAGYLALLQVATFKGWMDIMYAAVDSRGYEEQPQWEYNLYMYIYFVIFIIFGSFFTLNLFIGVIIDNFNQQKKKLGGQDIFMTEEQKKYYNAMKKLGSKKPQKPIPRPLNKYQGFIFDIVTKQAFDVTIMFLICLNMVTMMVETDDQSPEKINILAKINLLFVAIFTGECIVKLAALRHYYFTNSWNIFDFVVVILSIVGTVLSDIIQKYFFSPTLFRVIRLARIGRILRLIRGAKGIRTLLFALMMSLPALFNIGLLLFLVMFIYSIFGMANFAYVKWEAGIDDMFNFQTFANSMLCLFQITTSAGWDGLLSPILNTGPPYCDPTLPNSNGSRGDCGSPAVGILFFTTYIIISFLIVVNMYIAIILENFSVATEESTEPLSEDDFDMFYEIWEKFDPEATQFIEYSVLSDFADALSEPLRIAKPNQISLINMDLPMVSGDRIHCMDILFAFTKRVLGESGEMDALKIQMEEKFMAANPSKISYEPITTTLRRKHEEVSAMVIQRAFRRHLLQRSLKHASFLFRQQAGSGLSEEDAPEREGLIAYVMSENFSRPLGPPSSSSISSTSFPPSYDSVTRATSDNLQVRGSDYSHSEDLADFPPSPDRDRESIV

Row | Structure (SMILES) | IC50 (human Nav1.5; [1]) | IC50 (human Nav1.7; [2]) | IC50 (human Nav1.5; [3]) | IC50 (human Nav1.7; [4])
1 | O=C(N[C@H]1COc2ccc(C(F)(F)F)cc2C1F)c1cc2n(n1)CC[C@H](C(F)F)O2 (single isomer, unassigned; isomer a) [579(isomer A)] | 1000 to 3000 nM | < 1000 nM |  | 
2 | COC1c2cc(C(F)(F)F)ccc2OC[C@@H]1NC(=O)c1cc2n(n1)CC(COCC(F)(F)F)O2 (single isomer, unassigned; isomer a) [597(isomer A)] | ≥ 3000 nM | < 1000 nM |  | 
3 | COC1c2cc(C(F)(F)F)ccc2OC[C@@H]1NC(=O)c1cc2n(n1)CC(COCC(F)(F)F)O2 (single isomer, unassigned; isomer b) [597(isomer B)] | 1000 to 3000 nM | < 1000 nM |  | 
4 | O=C(NC1COc2ccc(F)cc2C1)c1cn2c(n1)CCC(C(F)(F)F)C2 (stereo not drawn) [Example 1, N-(6-fluorochroman-3-yl)-6-(trifluoromethyl)-5,6,7,8-tetrahydroimidazo[1,2-a]pyridine-2-carboxamide] |  |  | ≥ 3000 nM | < 10000 nM
5 | CN(C(=O)c1cn2c(n1)CCC(C(F)(F)F)C2)[C@H]1COc2ccc(Cl)cc2C1 (stereo partly drawn) [Example 3] |  |  | 1000 to 3000 nM | < 1000 nM
6 | O=C(N[C@H]1COc2ccc(Br)cc2C1)c1cn2c(n1)CCC(C(F)(F)F)C2 (stereo partly drawn) [Example 5] |  |  | 1000 to 3000 nM | < 1000 nM
7 | O=C(N[C@H]1COc2ccc(C(F)F)cc2C1)c1cn2c(n1)CCC(C(F)(F)F)C2 (stereo partly drawn) [Example 6] |  |  | 1000 to 3000 nM | < 10000 nM
8 | O=C(NC1COc2cccc(Cl)c2C1)c1cn2c(n1)CCC(C(F)(F)F)C2 (stereo not drawn) [Example 8] |  |  | ≥ 3000 nM | < 1000 nM
9 | CCc1ccc2c(c1)C[C@@H](NC(=O)c1cn3c(n1)CCC(C(F)(F)F)C3)CO2 (stereo partly drawn) [Example 11] |  |  | ≥ 3000 nM | < 1000 nM
10 | O=C(NC1COc2ccc(Br)cc2C1)c1cn2c(n1)CCC(C(F)(F)F)C2 (stereo not drawn) [Example 12] |  |  | 1000 to 3000 nM | < 1000 nM
11 | O=C(N[C@H]1COc2ccccc2C1)c1nc2n(c1I)CC(C(F)(F)F)CC2 (stereo partly drawn) [Example 14, N—((R)-chroman-3-yl)-3-iodo-6-(trifluoromethyl)-5,6,7,8-tetrahydroimidazo[1,2-a]pyridine-2-carboxamide] |  |  | ≥ 3000 nM | < 10000 nM
12 | O=C(N[C@H]1COc2ccccc2C1)c1nc2n(c1-c1ccccc1)CCCC2 [Example 16] |  |  | < 1000 nM | < 1000 nM
13 | COc1cccc(-c2c(C(=O)N[C@H]3COc4ccc(Cl)cc4C3)nc3n2CCCC3)n1 [Example 17, (R)—N-(6-chlorochroman-3-yl)-3-(6-methoxypyridin-2-yl)-5,6,7,8-tetrahydroimidazo[1,2-a]pyridine-2-carboxamide] |  |  | 1000 to 3000 nM | < 1000 nM
14 | O=C(N[C@H]1COc2ccc(C(F)(F)F)cc2C1)c1nc2n(c1-c1ccn[nH]1)CCCC2 [Example 19] |  |  | < 1000 nM | < 1000 nM
15 | O=C(N[C@H]1COc2ccc(COCC(F)(F)F)cc2C1)c1nc2n(c1-c1ccn[nH]1)CCCC2 [Example 20] |  |  | < 1000 nM | < 1000 nM
16 | O=C(NCCc1cccc(C(F)(F)F)c1)c1nc2n(c1-c1ccccc1)CCCC2 [Example 22] |  |  | ≥ 3000 nM | < 10000 nM
17 | CCC1CCc2nc(C(=O)N[C@H]3COc4ccccc4C3)cn2C1 (stereo partly drawn) [Example 23] |  |  | ≥ 3000 nM | < 10000 nM
18 | O=C(N[C@H]1COc2ccccc2C1)c1nc2n(c1Cl)CC(c1ccccc1)CC2 (stereo partly drawn) [Example 25] |  |  | 1000 to 3000 nM | < 10000 nM
19 | COc1ncccc1C1CCc2nc(C(=O)N3CCC(c4ccccc4)C3)cn2C1 (stereo not drawn) [Example 26] |  |  | ≥ 3000 nM | < 10000 nM
20 | COc1cccc(C2CCc3nc(C(=O)N[C@H]4COc5ccccc5C4)cn3C2)n1 (stereo partly drawn) [Example 27] |  |  | < 1000 nM | < 1000 nM
21 | COc1cccc(OC2CCN(C(=O)c3cn4c(n3)CCC(C3CCCC3)C4)C2)n1 (stereo not drawn) [Example 28] |  |  | ≥ 3000 nM | < 10000 nM
22 | O=C(c1cn2c(n1)CCC(CCc1ccccc1)C2)N1CCC(Oc2ccccn2)C1 (stereo not drawn) [Example 29] |  |  | 1000 to 3000 nM | < 10000 nM
23 | O=C(c1cn2c(n1)CCC(c1cccnc1C(F)(F)F)C2)N1CCC1Cc1ccccc1 (stereo not drawn) [Example 30] |  |  | ≥ 3000 nM | < 10000 nM
24 | COc1ncc(C(F)(F)F)cc1C1CCc2nc(C(=O)N3CCOC(c4ccc(F)cc4F)C3)cn2C1 (stereo not drawn) [Example 32] |  |  | 1000 to 3000 nM | < 10000 nM
25 | O=C(N[C@H]1COc2ccccc2C1)c1cn2c(n1)CCC(COc1ccccc1)C2 (stereo partly drawn) [Example 33] |  |  | 1000 to 3000 nM | < 1000 nM
26 | CC(C)(C)OCC1CCc2nc(C(=O)N[C@H]3COc4ccccc4C3)cn2C1 (stereo partly drawn) [Example 34] |  |  | ≥ 3000 nM | < 10000 nM
27 | O=C(N[C@H]1COc2ccccc2C1)c1cn2c(n1)CCC(C1(F)CCC1)C2 (stereo partly drawn) [Example 35] |  |  | 1000 to 3000 nM | < 1000 nM
28 | CC(C)(C)C1CCc2nc(C(=O)N[C@H]3COc4ccccc4C3)cn2C1 (stereo partly drawn) [Example 36] |  |  | ≥ 3000 nM | < 1000 nM
29 | O=C(N[C@H]1COc2ccc(Cl)cc2C1)c1cn2c(n1)CCC(OCC(F)(F)F)C2 (stereo partly drawn) [Example 38] |  |  | ≥ 3000 nM | < 10000 nM
30 | CC(C)COC1CCc2nc(C(=O)N[C@H]3COc4ccccc4C3)cn2C1 (stereo partly drawn) [Example 41] |  |  | ≥ 3000 nM | < 10000 nM
